# Measured values from patent US20110003753A1, “COMPOSITIONS AND METHODS FOR DISRUPTING THE FUNCTION OF THE TRANSCRIPTIONAL REPRESSOR COMPONENT Sin3A-PAH2 DOMAIN TO INDUCE DIFFERENTIATION AND GROWTH INHIBITION IN BREAST CANCER” (SAMUEL WAXMAN CANCER RESEARCH FOUNDATION, priority 2009, published 2011).
# What was measured:
# MDA-MB-231 cells = assay: Three-dimensional morphogenesis assay in Matrigel; assay type: cell-based, human; details: 5 μM peptide, Matrigel 3D culture
# Description: FIG. 3: A. Morphogenesis in 3D cultures in Matrigel. MDA-MB-231 and MMTV-Myc cells expressing SID or the double mutant were cultured in 3D-Matrigel for 14 days. […] B. Reversion of the invasive phenotype of the MDA-MB-231 cells in Matrigel 3D cultures. Upper panel indicates change in numbers of invasive versus non invasive colonies (as indicated in crosshatched and non-crosshatched bars, respectively) in the presence of different concentrations (as indicated) of cell penetrating SID or SID^SCR (scrambled control) peptide. The colonies were counted after 10 days of treatment with a medium containing fresh peptide changed every 24 hours. […] The reduction in invasive phenotype was quantified by counting 5 low magnification fields per well done in triplicates (upper panel). The p value was calculated using the unpaired Student t test.
# 3D cultures of MDA-MB-231 and MMTV-Myc cells stably transfected with pEGFP-SID, pEGFP-SID2Mut or the parent vector pEGFP-N3 were prepared as described by Debnath et al. (Debnath et al2003). Briefly, […] of growth factor depleted Matrigel (BD Biosciences) was applied on 8-well multichamber slides (BD Biosciences) and incubated at 37° C. for 30 minutes. Once the Matrigel solidified 5×10^3 cells were seeded on top of the gels in assay medium containing 2% Matrigel and 20 ng/ml […]. Growth medium was changed daily for 14 days. Once colony formation was evident, the SID or the scramble control peptide was added to the MDA-MB-231 parental cells in the medium starting at day 3. The morphology of the colonies was determined by confocal microscopy. Induction of apoptosis was determined by staining colonies with activated caspase-3 antibody (BD Transduction Labs) and cell polarization by staining with anti-GM130 antibody (BD Transduction Labs). Cell nuclei were visualized by DAPI (Sigma) staining. […]
# MDA-MB-231 = assay: Phenotypic (morphology) changes in culture; assay type: cell-based, human; details: cells in culture
# Description: (§1) FIG. 1: Expression of a decoy peptide corresponding to MAD Sin3 interaction domain (SID) induces markers of differentiation and contact inhibition in MDA-MB-231 breast cancer cells. A. Schematic of the SID peptides and expression constructs used in this study. Shown in the upper panel are the design and sequence of the Tat-SID peptide and Tat-SID^SCR scrambled control. The Tat-SID peptide corresponds to amino acids 5-24 of MAD. This sequence binds Sin3 PAH2 with high affinity and has been previously used to study SID-PAH2 interactions in vitro. Peptides contain a leader sequence (YGRKKRRQGGG, SEQ ID No. 5) corresponding to the human immunodeficiency virus type 1 Tat arginine-rich RNA-binding motif (ARM), which has been mutated (RRR>GGG) to improve nuclear entry. B. Morphological changes induced by SID in MDA-MB-231 and MMTV-Myc. […] D. Confocal IF analyses showing the re-expression of membrane-associated E-cadherin induced by the expression of SID in MDA-MB-231 cells (top row) and MMTV-Myc cells (bottom row) E. Re-expression of nuclear RARβ in MDA-MB-231 cells detected by immunofluorescence microscopy. […]
# [1] = tested on: MMTV-Myc mouse breast cancer cells; assay: Phenotypic (morphology) changes in culture; assay type: cell-based
# Description: as §1
sequence,measurement,setting,value
YGRKKRRQGGGVRMNIQMLLEAADYLERRER [SID peptide],number and size of the colonies,MDA-MB-231 cells,reduced
same,decrease in number of colonies with invasive phenotype,MDA-MB-231 cells; colonies counted after 10 days of treatment,~80%
same,phenotypic change of cell morphology,MDA-MB-231,cobblestone monolayers and well defined cell-cell contact accompanied by cell growth contact inhibition
same,phenotypic change of cell morphology,[1],cobblestone monolayers and well defined cell-cell contact accompanied by cell growth contact inhibition
